From article PMC6145916, “Interaction of mitochondrial fission factor with dynamin related protein 1 governs physiological mitochondrial function in vivo” (Scientific Reports, 2018)
Where no end group is shown, it is not given here.

Key:
[1] = test system: Mfn2; assay: Binding of recombinant Mfn2 to surface-conjugated P259 (AGILE-R100 graphene sensor); set-up: species or system human; conditions: P259 surface-conjugated (50 nM), 100 nM protein, RIPA buffer pH 8.0; n = 3, with 3 replicates
Source text: Figure 1 Rational peptide design identifies a novel inhibitor of the Mff-Drp1 protein-protein interaction. (a) A scheme of the rationale behind the inhibitor design. […] Surface and ribbon diagrams of Drp1 structure (PDB, 4BEJ) with the GTPase, bundle signaling element (BSE), and stalk domains highlighted. (d) A heatmap representing sequence conservation of human proteins that contain a region similar to P259. Sequence conservation corresponds to the number of residues similar/identical to P259 from each sequence. […] The obtained graph is of the mean standardized response and ± s.e. as a function of time for n = 3 individual experiments, with 3 technical replicates each. […] Represented Western blot is cropped from a full blot shown in the Expanded Western Blots section of the Supplementary Information. (h) Relative GTPase activity of recombinant Drp1 in the presence of 1 µM of peptide (n = 3–5). Data are mean ± s.e. from 3–5 independent experiments per condition.
Drp1 and Mff. Utilizing BioPython, a pairwise alignment was performed between each ortholog […]
brief, an automated microwave peptide synthesizer (Liberty, CEM Corporation) was used to perform solid phase peptide synthesis by a series of coupling of fluorenylmethoxycarbonyl (Fmoc)-protected amino acids and hydroxybenz otriazol (HOBt) […] reaction steps. […]

[2] = test system: MFF knockout MEFs; assay: Mitochondrial membrane potential (TMRM), MFF knockout MEFs; format: cell-based, mouse; conditions: 20 µM P259 overnight, vs no peptide; 3 independent experiments, three technical replicates; ns p = 0.93
Method: Data are of 3 independent experiments with the whiskers calculated by the Turkey method. e. […]
determined by an unpaired, two -tailed t test). g. […]
control (no peptide treatment). Data are mean ± s.e. from 3 independent experiments. […]
and without phenol red. […] After incubation
HEPES, and without phenol red. […]
epifluorescence microscope with a 10X objective (Keyence). The Cy5 filter (Keyence) was used to autofocus on the mitochondria plane. […]
Mitochondrial membrane potential determination
After treatment, cells were washed with
Cells were incubated in a 37
°C incubator for 30 minutes. […]

Substance: YGRKKRRQRRRGSGIIQLPEIVVV-NH2 (C-terminus assumed) [P259]
- binding to Mfn2 [1]: only negligible binding
- effect on mitochondrial membrane potential, Mff knockout MEFs [2]: insensitive
